Reference: patent US6369069B1 (Aventis Pharma Deutschland GmbH, priority 1998, dated 2002)

System: Na^+-dependent Cl^−/HCO3^− exchanger (NCBE)
Assay: Inhibition of the Na+-dependent Cl−/HCO3− exchanger (NCBE) in human endothelial cells (pHi recovery, BCECF fluorescence, FLIPR)
Format: cell-based
Details: for Residual activity of the NCBE at 10 μM: 10 μM compound, human endothelial cells (ECV-304), related to 100% and 0% pHi recovery controls
In short: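 ECV-304 cells loaded with 5 μM BCECF-AM in NH4Cl-containing saline, then placed in Na+/HCO3−-free buffer to acidify. pHi recovery started with Na+/HCO3− buffer (50 μM HOE 642) plus compound at various concentrations. Fluorescence kinetics over 2 min at 35 °C, normalised to 100% and 0% (HCO3−-free) controls.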

[1] = compound at 10 μM, sub-table with R7 substituent
[2] = compound at 10 μM, R(3) to R(7) hydrogen series

Row | SMILES | Residual activity % of the NCBE at 10 μM (10 μM) | further results
1 | Cc1ccc(CN(Cc2ccc(-c3ccccc3S(=O)(=O)NC#N)cc2)C(=O)c2cccs2)cc1 [Example 85] | 51.1% | –
2 | Cc1ccc(-c2ccc(CN(Cc3cccc4ccccc34)C(=O)Cc3ccsc3)cc2)c(S(=O)(=O)NC#N)c1 [Example 538] | – | Residual activity % of the NCBE at 10 μM [1]: 80.3%
3 | N#CNS(=O)(=O)c1ccccc1-c1ccc(CN(Cc2ccc3c(c2)OCO3)C(=O)c2ccccc2Cl)cc1 [Example 107] | 96.4% | –
4 | COCCN(Cc1ccc(-c2ccccc2S(=O)(=O)NC#N)cc1)C(=O)Cc1cccs1 [Example 237] | 50.3% | –
5 | N#CNS(=O)(=O)c1ccccc1-c1ccc(CN(Cc2ccc(C(F)(F)F)cc2)C(=O)c2cccs2)cc1 [Example 89] | 67.6% | –
6 | N#CNS(=O)(=O)c1ccccc1-c1ccc(CN(Cc2ccccc2)C(=O)CCCCc2ccccc2)cc1 [Example 244] | 60.4% | –
7 | COCCC(=O)N(Cc1ccc(-c2ccccc2S(=O)(=O)NC#N)cc1)Cc1cccc(Cl)c1Cl [Example 319] | 38.0% | –
8 | CC(C)=CCCC(C)=CCN(Cc1ccc(-c2ccccc2S(=O)(=O)NC#N)cc1)C(=O)CC1CCCC1 [Example 363] | 48.3% | –
9 | C[C@@H](c1ccccc1)N(Cc1ccc(-c2ccccc2S(=O)(=O)NC#N)cc1)C(=O)C(c1ccccc1)c1ccccc1 [Example 113] | 94.6% | –
10 | COc1ccc(CN(Cc2ccc(-c3ccccc3S(=O)(=O)NC#N)cc2)C(=O)C2CCCCC2)cc1 [Example 15] | 67.6% | –
11 | C#CCN(Cc1ccc(-c2ccccc2S(=O)(=O)NC#N)cc1)C(=O)CCC1CCCCC1 [Example 249] | 76.1% | –
12 | COc1ccccc1C(=O)N(Cc1ccc(-c2ccccc2S(=O)(=O)NC#N)cc1)Cc1cccc(Cl)c1Cl [Example 329] | 25.7% | –
13 | CN(Cc1ccc(-c2ccccc2S(=O)(=O)NC#N)cc1)C(=O)C(=O)c1cccs1 [Example 198] | 51.1% | –
14 | N#CNS(=O)(=O)c1ccccc1-c1ccc(CN(Cc2cccs2)C(=O)C(NC(=O)OCc2ccccc2)c2ccccc2)cc1 (centres unmarked) [Example 251] | 83.9% | –
15 | N#CNS(=O)(=O)c1ccccc1-c1ccc(CN(Cc2nc3ccccc3[nH]2)C(=O)CCCc2cccs2)cc1 [Example 192] | 49.1% | –
16 | C[C@H](c1ccccc1)N(Cc1ccc(-c2ccccc2S(=O)(=O)NC#N)cc1)C(=O)Cc1cccs1 [Example 133] | 40.9% | –
17 | Cc1ccc(-c2ccc(CN(Cc3cccc4ccccc34)C(=O)CC3CCCCC3)cc2)c(S(=O)(=O)NC#N)c1 [Example 546] | – | Residual activity % of the NCBE at 10 μM [1]: 63.6%
18 | CN(C)c1ccc(CN(Cc2ccc(-c3ccccc3S(=O)(=O)NC#N)cc2)C(=O)Cc2ccc(Cl)cc2)cc1 [Example 149] | 77.4% | –
19 | CN(Cc1ccc(-c2ccccc2S(=O)(=O)NC#N)cc1)C(=O)Cc1cccs1 [Example 239] | 56.3% | –
20 | Cc1ccc(-c2ccc(CN(Cc3ccccc3Cl)C(=O)Cc3ccsc3)cc2)c(S(=O)(=O)NC#N)c1 [Example 540] | – | Residual activity % of the NCBE at 10 μM [1]: 64.6%

Row | SMILES | Residual activity % of the NCBE at 10 μM (10 μM) | further results
21 | N#CNS(=O)(=O)c1ccccc1-c1ccc(CN(Cc2ccccc2Cl)C(=O)c2cccs2)cc1 [Example 81] | 36.0% | –
22 | Cc1ccc(-c2ccc(CN(Cc3cccc(Cl)c3Cl)C(=O)Cc3ccc(Cl)cc3)cc2)c(S(=O)(=O)NC#N)c1 [Example 536] | – | Residual activity % of the NCBE at 10 μM [1]: 76.3%
23 | COc1ccccc1CN(Cc1ccc(-c2ccccc2S(=O)(=O)NC#N)cc1)C(=O)C(c1ccccc1)c1ccccc1 [Example 114] | 81.7% | –
24 | N#CNS(=O)(=O)c1ccccc1-c1ccc(CN(Cc2ccccc2Cl)C(=O)c2cc3ccccc3s2)cc1 [Example 71] | 35.2% | –
25 | Cc1ccc(-c2ccc(CN(Cc3cccc(Cl)c3Cl)C(=O)Cc3cccs3)cc2)c(S(=O)(=O)NC#N)c1 [Example 520] | – | Residual activity % of the NCBE at 10 μM [1]: 85.9%
26 | CC(C)CN(Cc1ccc(-c2ccccc2S(=O)(=O)NC#N)cc1)C(=O)c1cccs1 [Example 82] | 99.8% | –
27 | N#CNS(=O)(=O)c1ccccc1-c1ccc(CN(Cc2nc3ccccc3[nH]2)C(=O)Cc2c[nH]c3ccccc23)cc1 [Example 208] | 50.7% | –
28 | N#CNS(=O)(=O)c1ccccc1-c1ccc(CN(CCCc2ccccc2)C(=O)C(=O)c2cccs2)cc1 [Example 194] | 61.1% | –
29 | N#CNS(=O)(=O)c1ccccc1-c1ccc(CN(Cc2ccc(C(F)(F)F)cc2)C(=O)c2ccccc2Cl)cc1 [Example 109] | 75.4% | –
30 | COc1cccc(CC(=O)N(Cc2ccccc2)Cc2ccc(-c3ccccc3S(=O)(=O)NC#N)cc2)c1 [Example 19] | 25.9% | –
31 | N#CNS(=O)(=O)c1ccccc1-c1ccc(CN(Cc2cccs2)C(=O)C(=O)c2ccco2)cc1 [Example 254] | 64.5% | –
32 | N#CNS(=O)(=O)c1ccccc1-c1ccc(CN(CCCc2ccccc2)C(=O)Cc2csc3ccccc23)cc1 [Example 210] | 66.2% | –
33 | N#CNS(=O)(=O)c1ccccc1-c1ccc(CN(Cc2cccc(Cl)c2Cl)C(=O)Cc2cccs2)cc1 [Example 309] | 88.9% | –
34 | CCN(Cc1ccc(-c2ccccc2S(=O)(=O)NC#N)cc1)C(=O)CCCc1cccs1 [Example 191] | 39.3% | –
35 | CC(C)(C)OC(=O)C(c1ccccc1)N(Cc1ccc(-c2ccccc2S(=O)(=O)NC#N)cc1)C(=O)Cc1ccccc1Br (centres unmarked) [Example 275] | 54.6% | –
36 | COCCC(=O)N(Cc1ccc(-c2ccccc2S(=O)(=O)NC#N)cc1)Cc1ccc2ccccc2c1 [Example 320] | 38.8% | –
37 | C=CCOC(=O)N(CCO)Cc1ccc(-c2ccccc2S(=O)(=O)NC#N)cc1 [Example 44] | 82.6% | –
38 | Cc1ccc(CN(Cc2ccc(-c3ccccc3S(=O)(=O)NC#N)cc2)C(=O)c2cc3ccccc3s2)cc1 [Example 75] | 80.3% | –
39 | N#CNS(=O)(=O)c1ccccc1-c1ccc(CN(Cc2ccccc2)C(=O)NC2CCCCC2)cc1 [Example 300] | 29.4% | –
40 | N#CNS(=O)(=O)c1ccccc1-c1ccc(CN(Cc2ccccc2)C(=O)NCc2ccccc2)cc1 [Example 299] | 48.6% | –

Row | SMILES | Residual activity % of the NCBE at 10 μM (10 μM) | further results
41 | COc1cc(CN(Cc2ccc(-c3ccccc3S(=O)(=O)NC#N)cc2)C(=O)CC(C)(C)C)cc(OC)c1OC [Example 162] | 30.2% | –
42 | N#CNS(=O)(=O)c1ccccc1-c1ccc(CN(Cc2nc3ccccc3[nH]2)C(=O)Cc2csc3ccccc23)cc1 [Example 216] | 62.2% | –
43 | N#CNS(=O)(=O)c1ccccc1-c1ccc(CN(Cc2ccc(C(F)(F)F)cc2)C(=O)Cc2cccs2)cc1 [Example 235] | 67.1% | –
44 | COCCOc1cc(-c2ccccc2S(=O)(=O)NC#N)ccc1CN(Cc1ccccc1)S(=O)(=O)c1cccs1 [Example 558, 4′-{[Benzyl(thiophene-2-sulfonyl)amino]methyl}-3′-(2-methoxy)ethoxy-biphenyl-2-sulfonylcyanamide] | – | Residual activity of the NCBE at 10 μM: 30%
45 | N#CNS(=O)(=O)c1ccccc1-c1ccc(CN(Cc2ccccc2)C(=O)Cc2cccs2)c(Cl)c1 [Example 554, 4′-{[Benzyl-(2-thiophen-2-ylacetyl)amino]methyl}-3′-chlorobiphenyl-2-sulfonylcyanamide] | – | Residual activity of the NCBE at 10 μM: 15%
46 | COc1ccc(CC(=O)N(Cc2ccc(-c3ccccc3S(=O)(=O)NC#N)cc2)Cc2ccccc2Cl)cc1 [Example 174] | 50.2% | –
47 | CN(Cc1ccc(-c2ccccc2S(=O)(=O)NC#N)cc1)C(=O)CCCc1cccs1 [Example 190] | 43.4% | –
48 | N#CNS(=O)(=O)c1ccccc1-c1ccc(CN(C(=O)CC2CCCCC2)C2CCCc3ccccc32)cc1 (centres unmarked) [Example 355] | 46.8% | –
49 | Cc1ccccc1CN(Cc1ccc(-c2ccccc2S(=O)(=O)NC#N)cc1)C(=O)CCOc1ccccc1 [Example 342] | 85.3% | –
50 | CC(C)CN(Cc1ccc(-c2ccccc2S(=O)(=O)NC#N)cc1)C(=O)c1cc2ccccc2s1 [Example 72] | 86.3% | –
51 | N#CNS(=O)(=O)c1ccccc1-c1ccc(CN(CC2(c3ccccc3)CCCC2)C(=O)Cc2ccco2)cc1 [Example 394] | – | Residual activity % of the NCBE at 10 μM [2]: 72.5%
52 | CCCC(=O)N(Cc1ccc(OC)cc1)Cc1ccc(-c2ccccc2S(=O)(=O)NC#N)cc1 [Example 3] | 80.9% | –
53 | COc1ccc(CN(Cc2ccc(-c3ccccc3S(=O)(=O)NC#N)cc2)C(=O)c2ccc(C)cc2)cc1 [Example 70] | 94.7% | –
54 | Cc1ccc(C(C)C(=O)N(Cc2ccccc2)Cc2ccc(-c3ccccc3S(=O)(=O)NC#N)cc2)s1 (centres unmarked) [Example 481] | – | Residual activity % of the NCBE at 10 μM [2]: 62.6%
55 | N#CNS(=O)(=O)c1ccccc1-c1ccc(CN(Cc2ccc(F)cc2)C(=O)Cc2cccs2)cc1 [Example 147] | 53.2% | –
56 | COC(=O)C(Cc1ccccc1)N(Cc1ccc(-c2ccccc2S(=O)(=O)NC#N)cc1)C(=O)C(=O)c1cccs1 (centres unmarked) [Example 201] | 69.6% | –
57 | COc1cccc(CN(Cc2ccc(-c3ccccc3S(=O)(=O)NC#N)cc2)C(=O)NCc2ccccc2)c1 [Example 303] | 65.8% | –
58 | Cc1ccc(-c2ccc(CN(Cc3cccc4ccccc34)C(=O)Cc3ccc(Cl)cc3)cc2)c(S(=O)(=O)NC#N)c1 [Example 530] | – | Residual activity % of the NCBE at 10 μM [1]: 89.8%
59 | N#CNS(=O)(=O)c1ccccc1-c1ccc(CN(CC2CCCO2)C(=O)CCOc2ccccc2)cc1 (centres unmarked) [Example 348] | 46.3% | –
